Assay results from patent US20130345218A1 (Vertex Pharmaceuticals Incorporated, priority 2010, published 2013).
pEC50, pIC50: −log10 of the molar value.

Experiments:
[1] = tested on: influenza A virus (A/PR/8/34) minus-strand viral RNA; assay: microbe, parasite or virus in culture; format: cell-based; conditions: Influenza A virus, PR/8; mean EC50 (mean all); viral RNA by bDNA; read-out: bDNA EC50
[2] = tested on: influenza A virus (A/PR/8/34); assay: microbe, parasite or virus in culture; format: cell-based; conditions: Influenza A virus, PR/8, MDCK, 72 h, mean IC50 (mean all); MDCK cells, A/PR/8/34, 72 hours; read-out: Flu, MDCK IC50

SMILES | pEC50 [1] | pIC50 [2]
CN(C)C(=O)N[C@@H]1CCC[C@H](Nc2nc(-c3c[nH]c4ncc(F)cc34)c(F)cc2F)C1 [Compound I-17, 3-((1R,3S)-3-((3,5-difluoro-6-(5-fluoro-1H-pyrrolo[2,3-b]pyridin-3-yl)pyridin-2-yl)amino)cyclohexyl)-1,1-dimethylurea] | > 5.48 | > 5.48
Cn1cnc(C(=O)N[C@@H]2CCC[C@H](Nc3nc(-c4c[nH]c5ncc(F)cc45)c(F)cc3F)C2)c1 [Compound I-18, N-((1R,3S)-3-((3,5-difluoro-6-(5-fluoro-1H-pyrrolo[2,3-b]pyridin-3-yl)pyridin-2-yl)-amino)cyclohexyl)-1-methyl-1H-imidazole-4-carboxamide] | > 5.48 | > 5.48
O=C(N[C@@H]1CCC[C@H](Nc2nc(-c3c[nH]c4ncc(F)cc34)c(C(F)(F)F)cc2F)C1)N1CCCC1 [Compound I-19] | > 5.48 | > 5.48
O=C(N[C@H]1CCC[C@@H](Nc2nc(-c3c[nH]c4ncc(F)cc34)c(C(F)(F)F)cc2F)C1)N1CCOCC1 [Compound I-21] | > 5.48 | > 5.48
O=C(N[C@@H]1CCC[C@H](Nc2nc(-c3c[nH]c4ncc(F)cc34)c(C(F)(F)F)cc2F)C1)N1CCOCC1 [Compound I-22, N-[(1R,3S)-3-[[3-fluoro-6-(5-fluoro-1H-pyrrolo[2,3-b]pyridin-3-yl)-5-(trifluoro-methyl)-2-pyridyl]amino]cyclohexyl]morpholine-4-carboxamide] | > 5.48 | > 5.48
N#CC1(C(=O)N[C@@H]2CCC[C@H](Nc3nc(-c4c[nH]c5ncc(F)cc45)c(F)cc3F)C2)CC1 [Compound I-23] | > 5.48 | > 5.48
O=C(N[C@@H]1CCC[C@H](Nc2nc(-c3c[nH]c4ncc(F)cc34)c(F)cc2F)C1)N1CC[C@H](F)C1 [Compound I-24, (S)—N-((1R,3S)-3-((3,5-difluoro-6-(5-fluoro-1H-pyrrolo[2,3-b]pyridin-3-yl)pyridin-2-yl)-amino)cyclohexyl)-3-fluoropyrrolidine-1-carboxamide] | > 5.48 | > 5.48
O=C(N[C@@H]1CCC[C@H](Nc2nc(-c3c[nH]c4ncc(F)cc34)c(F)cc2F)C1)N1CCC(F)(F)C1 [Compound I-25, N-((1R,3S)-3-((3,5-difluoro-6-(5-fluoro-1H-pyrrolo[2,3-b]pyridin-3-yl)pyridin-2-yl)-amino)cyclohexyl)-3,3-difluoropyrrolidine-1-carboxamide] | > 5.48 | > 5.48
O=C(O)[C@@H]1C2CCC(CC2)[C@H]1Nc1nc(-c2c[nH]c3ncc(F)cc23)c(F)cc1F [Compound I-26] | > 5.48 | > 5.48
COC(=O)[C@@H]1C2CCC(CC2)[C@H]1Nc1nc(-c2c[nH]c3ncc(Cl)cc23)c(F)cc1F [Compound I-31] | < 5.48 | ≤ 5.48
O=C(O)[C@@H]1C2CCC(CC2)[C@H]1Nc1nc(-c2c[nH]c3ncc(Cl)cc23)c(F)cc1F [Compound I-32] | > 5.48 | > 5.48
COC(=O)[C@H]1C2CCC(CC2)[C@@H]1Nc1nc(-c2c[nH]c3ncc(Cl)cc23)c(F)cc1F [Compound I-33, (2S,3S)-methyl 3-((6-(5-chloro-1H-pyrrolo[2,3-b]pyridin-3-yl)-3,5-difluoropyridin-2-yl)amino)bicyclo[2.2.2]octane-2-carboxylate] | > 5.48 | > 5.48
O=C(O)[C@H]1C2CCC(CC2)[C@@H]1Nc1nc(-c2c[nH]c3ncc(Cl)cc23)c(F)cc1F [Compound I-34, (2S,3S)-3-((6-(5-chloro-1H-pyrrolo[2,3-b]pyridin-3-yl)-3,5-difluoropyridin-2-yl)amino)-bicyclo[2.2.2]octane-2-carboxylic acid] | > 5.48 | > 5.48
O=C(O)[C@H]1C2CCC(CC2)[C@@H]1Nc1cc(C(F)(F)F)cc(-c2c[nH]c3ncc(F)cc23)n1 [Compound I-40] | > 5.48 | > 5.48
O=C(O)[C@@H]1C2CCC(CC2)[C@H]1Nc1cc(C(F)(F)F)cc(-c2c[nH]c3ncc(F)cc23)n1 [Compound I-41] | > 5.48 | > 5.48
